According to US9636317B2, “Compositions and methods of use of phorbol esters” (priority 2007, dated 2017):
Several values for one entry are separate records, joined by “and”; a condition that tells them apart may be missing. Identical values can stand only once.

Tests used:
[1] = system: HIV-cytopathic effects on MT-4 cells; settings: cited from earlier work
[2] = system: circulating white blood cells and neutrophils; settings: patients whose bone marrow function has been depressed by chemotherapy; cited from earlier work
terminal breast cancer = experiment: Treatment of breast cancer (patient case); type: in vivo, human; settings: 35 injections, 0.18 to 0.26 mg TPA three to four times a week
From the text: Patient six was diagnosed with terminal breast cancer. They were unresponsive to either radiation or chemotherapy and the cancer had metastasized into the bone leaving their wheelchair bound.

terminal lung cancer = experiment: Treatment of lung cancer (patient case); type: in vivo, human; settings: 35 injections, 0.19 to 0.26 mg TPA three to four times a week
From the text: Patient ten was diagnosed with terminal lung cancer which was refractory to chemotherapy. The cancer metastasized into their bones leaving them unable to walk.

[3] = Reduction of periorbital hyperpigmentation; type: in vivo, human; settings: 6 women and 1 man
Description: 6 women and 1 man with excessive periorbital hyperpigmentation were treated with TPA.

[4] = system: CD3, CD4 and CD8 in peripheral blood; experiment: First clinical study of HIV+ patients: CD3, CD4, CD8 levels by flow cytometry; type: in vivo, human; parameters: CD4 / CD8 / CD3: unit not given here; settings: for CD3 / CD4 / CD8: one value per patient
Description: Twelve symptomatic patients (five males and seven females) between the ages of 35 to 52 all of whom were infected with HIV in 1995 through blood transfusion and were refractory to standard treatments for HIV were treated with TPA. Each patient was administered a weight adjusted dosage of TPA (75 μg/sq m) in 200 ml of sterile saline by i.v. over one hour. This dose was administered once daily for the first three days of treatment. Each patient was then given this dose every other day for days 4 to 18 followed by a six month rest period prior to a second course of treatment according to the same protocol.
[…] Levels of CD3, CD4 and CD8 in peripheral blood were measured using monoclonal antibodies (Becton Dickson Scientific Co., Franklin Lakes, N.J.) and a flow cytometer (B.D. Bioscience, San Diego, Calif.).

[5] = system: pancreatic cancer, non-small-cell lung cancer, nasopharyngeal carcinoma; experiment: TPA as an adjuvant to traditional neoplasm treatments (patient cases); type: in vivo, human
Description: Patient three was diagnosed with terminal metastasized pancreatic cancer. They received five injections of 0.18 mg TPA (0.125 mg/m^2) per week for 12 weeks in addition to chemotherapy.
Patient nine was diagnosed with non-small-cell lung cancer. The cancer had metastasized and was refractory to Tarceva® (erlotinib) and Iressa™ (gefitinib). The patient was treated with a combination of gemcitabine and cisplatin according to standard protocols accompanied by an injection of 0.19 mg of TPA (0.125 mg/m^2) each weekday for eight weeks. […] They have been in remission since Jun. 30, 2010.
Patient thirteen was diagnosed with terminal nasopharyngeal carcinoma and treated with both chemotherapy and radiotherapy. They received injections of 0.19 mg of TPA (0.125 mg/m^2) of TPA a day for five days prior to beginning radiotherapy and then 0.19 mg of TPA (0.125 mg/m^2) every other day for a total of 20 injections.

[6] = Treatment of Parkinson's disease (patient case); type: in vivo, human; settings: 0.19, 0.24, 0.26 mg TPA every other day over 9 weeks
Description: Patient two was diagnosed with Parkinson's disease. They were injected with 1 ampoule containing 0.19 mg of TPA (0.125 mg/m^2) TPA every other day for four weeks, then 0.24 mg of TPA (1.25×0.125 mg/m^2) every other day for 2 weeks, and 0.26 mg of TPA (1.5×0.125 mg/m^2) every other day for an additional 3 weeks.

[7] = Treatment of urinary incontinence (patient cases); type: in vivo, human
From the text: Patient twelve has suffered from urinary incontinence for more than 30 years.
Patient one has suffered from urinary incontinence for fifteen years.

[8] = Second clinical study of HIV+ patients: periphery blood count; type: in vivo, human; settings: one value per patient
Description: Nine of the patients in Example III were given a second treatment of TPA. Of these nine, seven were asymptomatic at the beginning of the second trial. A tenth patient (patient #2a) who was symptomatic and had not previously been treated with TPA was added to the study. Each patient was administered a weight adjusted dosage of TPA (75 μg/sq m) in 200 ml of sterile saline intravenously over one hour. This dosage was given to each patient once a day for ten consecutive days followed by a rest period of ten days for three cycles and a total of 30 doses of TPA. Patients 5a, 6a, and 8a stopped taking anti-AIDS drugs one month prior to beginning the TPA treatment and beginning again one month after the third cycle. Patients 1-4-a, 7a, and 9a-10a continued taking anti-AIDS drugs throughout the treatment.
Blood samples were taken three days prior to starting treatment, after completing the first 10 day cycle of TPA infusion and again after the last TPA infusion and CD3, CD4, CD8, WBC, RBC, HGB and platelets were measured.

[9] = Four days after TPA, 75 μg/sq m i.v.
[10] = After first 10-day TPA infusing
[11] = After third 10-day TPA infusing

CCCCCCCCCCCCCC(=O)O[C@@H]1[C@@H](C)[C@@]2(O)[C@@H](C=C(CO)C[C@]3(O)C(=O)C(C)=C[C@@H]23)[C@@H]2C(C)(C)[C@]12OC(C)=O [TPA, 12-O-tetradecanoylphorbol-13-acetate]
HIV-cytopathic effects [1]: inhibit the HIV-cytopathic effects on MT-4 cells
circulating white blood cells and neutrophils [2]: increase in circulating white blood cells and neutrophils
outcome, terminal breast cancer metastasized into the bone (terminal breast cancer): in remission and able to walk normally
outcome, terminal lung cancer metastasized into bones (terminal lung cancer): in remission and able to walk normally
inflammation and hyperpigmentation in the periorbital area [3]: reduced the inflammation and hyperpigmentation in the periorbital area
CD3 ([4]; After TPA (patients 09-12)): 2920 and 1077 and 874 and 362
CD4 ([4]; After TPA (patients 09-12)): 663 and 445 and 131 and 78
CD8 ([4]; After TPA (patients 09-12)): <2000 and 591 and 724 and 268
CD3 ([4]; Forty two days after TPA): 799 and 424 and 581 and 1643 and 537 and 146 and 858 and 203
CD4 ([4]; Forty two days after TPA): 54 and 33 and 44 and 191 and 49 and 1 and 241 and 2
CD8 ([4]; Forty two days after TPA): 700 and 374 and 493 and 1429 and 429 and 139 and 527 and 111
CD3 [4, 9]: 427 and 941 and 1282 and 808 and 598 and 739 and 299 and 2616
CD4 [4, 9]: 36 and 123 and 119 and 179 and 7 and 318 and 3 and 105
CD8 [4, 9]: 366 and 770 and 1330 and 570 (2×) and 355 and 180 and <2000
change in CD3, CD4, or CD8 levels (summary of Table 1) ([4]; twelve patients): no consistent change or correlation was observed
tumor in the pancreas ([5]; five injections of 0.18 mg TPA per week for 12 weeks in addition to chemotherapy, from 6.3 cm): 2.4 cm
skin damage from radiation treatment ([5]; nasopharyngeal carcinoma patient): did not suffer any apparent skin damage
remission ([5]; nasopharyngeal carcinoma patient, chemotherapy and radiotherapy plus 20 injections of 0.19 mg TPA): in remission for two and a half years
side effects of chemotherapy ([5]; non-small-cell lung cancer patient, gemcitabine and cisplatin plus 0.19 mg TPA each weekday for eight weeks): did not lose any hair and had significantly less nausea
remission ([5]; non-small-cell lung cancer patient, gemcitabine and cisplatin plus TPA): in remission since Jun. 30, 2010
side effects of chemotherapy ([5]; pancreatic cancer patient, TPA in addition to chemotherapy): significantly less vomiting and nausea than in prior chemotherapy treatments without TPA
tremors [6]: no longer displaying tremors
urinary frequency ([7]; nine injections of 0.18 mg of TPA): regained normal urinary frequency
urinary frequency ([7]; six injections of 0.18 mg of TPA): regained normal urinary frequency
HGB [8, 10]: 88 g/L and 1.38 g/L and 107 g/L and 1.35 g/L and 142 g/L and 143 g/L and 128 g/L and 57 g/L and 92 g/L and 99 g/L
PLt [8, 10]: 2.38e+11 L⁻¹ and 3.38e+11 L⁻¹ and 3.06e+11 L⁻¹ and 3.15e+11 L⁻¹ and 2.56e+11 L⁻¹ and 2.58e+11 L⁻¹ and 2.21e+11 L⁻¹ and 2.14e+11 L⁻¹ and 1.87e+11 L⁻¹ and 3.25e+11 L⁻¹
RBC [8, 10]: 2.14e+12 L⁻¹ and 3.83e+12 L⁻¹ and 2.92e+12 L⁻¹ and 3.46e+12 L⁻¹ and 3.48e+12 L⁻¹ and 3.76e+12 L⁻¹ and 3.86e+12 L⁻¹ and 1.99e+12 L⁻¹ and 2.58e+12 L⁻¹ and 2.61e+12 L⁻¹
WBC [8, 10]: 3.7e+09 L⁻¹ and 9.8e+09 L⁻¹ and 3.6e+09 L⁻¹ and 5.7e+09 L⁻¹ and 4.2e+09 L⁻¹ and 6e+09 L⁻¹ and 4.3e+09 L⁻¹ and 2.6e+09 L⁻¹ and 2.9e+09 L⁻¹ and 4.4e+09 L⁻¹
HGB [8, 11]: 102 g/L and 100 g/L and 140 g/L and 105 g/L and 144 g/L and 154 g/L and 123 g/L and 128 g/L and 67 g/L and 130 g/L
PLt [8, 11]: 182 ×10^9/L and 124 ×10^9/L and 549 ×10^9/L and 105 ×10^9/L and 130 ×10^9/L and 169 ×10^9/L and 293 ×10^9/L and 138 ×10^9/L (2×) and 170 ×10^9/L
RBC [8, 11]: 2.91e+12 L⁻¹ and 2.52e+12 L⁻¹ and 4.54e+12 L⁻¹ and 2.85e+12 L⁻¹ and 3.61e+12 L⁻¹ and 3.66e+12 L⁻¹ and 3.92e+12 L⁻¹ and 4.19e+12 L⁻¹ and 2.33e+12 L⁻¹ and 4.31e+12 L⁻¹
WBC [8, 11]: 6.1e+09 L⁻¹ and 1.11e+10 L⁻¹ and 1.36e+10 L⁻¹ and 9.2e+09 L⁻¹ and 1.01e+10 L⁻¹ and 6.5e+09 L⁻¹ and 6e+09 L⁻¹ and 6.8e+09 L⁻¹ and 4e+09 L⁻¹ and 7e+09 L⁻¹
